Source: patent US6906175B2, “Production of adenine nucleotide translocator (ANT), novel ANT ligands and screening assays therefor” (priority 1998, dated 2005)
Entries after “also recorded” stand apart in the source; their conditions may differ.

Experiments:
[1] = target: T1, bovine mitochondria (ANT) (Bos taurus, UniProt P02722); test: 125I-compound 24 competition binding (Tube Assay), beef heart mitochondria
T1 construct: from tissue; host or cells: bovine heart mitochondria
T1 sequence (P02722 2-298 limits assumed): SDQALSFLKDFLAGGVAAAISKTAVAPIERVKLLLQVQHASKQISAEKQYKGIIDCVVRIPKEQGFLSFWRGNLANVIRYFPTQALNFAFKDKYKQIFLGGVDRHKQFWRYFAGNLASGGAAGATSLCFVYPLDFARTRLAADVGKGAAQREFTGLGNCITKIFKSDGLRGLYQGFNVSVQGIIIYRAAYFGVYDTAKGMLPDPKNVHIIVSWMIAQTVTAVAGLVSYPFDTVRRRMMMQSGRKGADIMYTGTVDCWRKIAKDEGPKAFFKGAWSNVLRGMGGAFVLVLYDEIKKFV
Experimental: Bovine mitochondria were prepared as follows: Essentially all of the fat and cholesterol […] was removed from two bovine hearts which were then cut into 1-inch cubes. The cubes were ground in a meat grinder using the fine setting. Three hundred (300) […] portions of the ground heart were weighed out and, to each was added 400 ml of Isolation Buffer (IB; 250 mM sucrose, 1 mM sodium succinate, 0.2 mM K^+EDTA, 10 mM Tris-base, pH 7.8). (All buffers were filter sterilized, and column buffers were degassed, and, unless otherwise noted, all steps were carried out at 0 to 4° C. on ice or in pre-cooled rotors and centrifuges.) The preparations were mixed in a blender two times for 15 seconds on high setting and, in between and after blends, the pH was adjusted to 7.8 with 2M Tris-base. The homogenate was centrifuged for 20 minutes at 1,200×g, and the supernatant was poured through two layers of cheese cloth and adjusted to pH 7.8 with 2M Tris-base. The supernatant was then centrifuged for 30 minutes at […]. The supernatant was decanted, and the buff-colored outer pellet was dislodged with about 10 ml of IB and discarded. The brown inner pellet (heavy mitochondria) was resuspended in IB (about 10 ml per pellet). The pellets were homogenized in a glass-teflon homogenizer (2 passes at high drill speed). Samples were combined and centrifuged for 30 minutes at 11,000×g. The supernatant was decanted, and the pellets were resuspended in 60 ml of IB per 900 gm of ground heart. This centrifugation step was repeated and the pellets were finally resuspended in IB (60 ml per 900 gm of ground heart). One kilogram of beef heart typically yields about one (1) gram of mitochondria
(§1) The mitochondrial preparations were divided into aliquots (typically, 50μl for T. ni mitochondria or 20 μl for bovine mitochondria) and then either used directly in assays or flash frozen and stored at −80° C. The total protein content in the mitochondrial preparations was determined using the enhanced protocol (30 minutes at 60° C.; see http://www.ruf.rice.edu/˜bioslabs/methods/protein/BCA.html) of the bicinchoninic acid (BCA) assay (available in kit form from Pierce, Rockford, Ill.).
In the “Tube Assay,” mitochondria (from about 1 to 10 μg of total protein) were resuspended in 100 μl of Tris-KCl buffer with 0.1% BSA, pH 7.4. ^125I-labeled compound 24 (Example 11) was added to a final concentration of 0.5 nM. When used, competitors were added at these concentration ranges: unlabeled atractyloside or compound 24 final concentration from 5 nM to 10 μM; unlabeled ADP (a lower affinity competitor) was added at a final concentration of 500 nM to 1 mM.
The reaction mixes were incubated on ice for 60 minutes and then pelleted by centrifugation (approximately 16,000×g) for 11 minutes at 4° C.
Unbound ^125I-compound 24 was removed by aspiration. The pellets were contact-washed with Tris-KCl buffer, pH 7.4, and recentrifuged. The resultant pellets were aspirated and the radioactivity (dpm) in each was determined by gamma counting.

[2] = target: T2, T. ni/huANT3 mitochondria (Homo sapiens, UniProt P12236); test: 125I-compound 24 competition binding (Tube Assay), mitochondria from T. ni cells expressing huANT3
T2 construct: expressed in transfected cells; host or cells: Trichoplusia ni cells infected with recombinant baculovirus (cells prepared by PharMingen); isolated mitochondria
T2 sequence (P12236 1-298): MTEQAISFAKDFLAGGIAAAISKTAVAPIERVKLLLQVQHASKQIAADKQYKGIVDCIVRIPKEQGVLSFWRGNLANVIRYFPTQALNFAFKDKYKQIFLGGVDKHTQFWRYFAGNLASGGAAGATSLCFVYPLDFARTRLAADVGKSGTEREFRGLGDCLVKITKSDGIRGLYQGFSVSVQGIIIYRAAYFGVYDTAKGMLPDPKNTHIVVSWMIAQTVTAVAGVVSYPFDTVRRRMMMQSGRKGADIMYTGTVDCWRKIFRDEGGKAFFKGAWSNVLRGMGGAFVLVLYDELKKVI
Experimental: Atractyloside analogs (Example 6; Table 1; see also Examples 7-9) were also used in pseudo-homologous competition binding assays using T. ni/huANT3 mitochondria or bovine mitochondria. Mitochondria from noninfected T. ni cells, or T. ni cells infected with a baculovirus expressing huANT3 (see Example 3) were prepared as follows: […] cells were prepared by a subcontractor (PharMingen, San Diego, Calif.) as portions of about 250 mg of cells per tube. Each portion was suspended in 1 ml of MSB with protease inhibitors (leupeptin, final concentration 10 ug/ml; pepstatin, final concentration 10 ug/ml; aprotinin, final concentration, 2 ug/ml; phenylmethylsulfonyl fluoride, [PMSF], final concentration, 100 μM; all from Sigma Chemical Co., St. Louis, Mo.). The resuspended cell suspensions were frozen and thawed twice, then homogenized using a rotating teflon-coated probe and a close-fitting glass container (10 passes). The cellular homogenate was centrifuged (3,700 rpm, approximately 1,500×g) at 4° C. for 5 minutes; this supernatant from the first spin was saved. The pellet was washed with about 500 μl of MSB with protease inhibitors, centrifuged (3,800 rpm, approximately 1,600×g) at 4° C. for 5 minutes, and supernatant from this spin was combined with the supernatant from the first spin. […]
as §1, with “Ill.). […]” for “Ill.).”
Unbound ^125I-compound 24 was removed by aspiration. […] The resultant pellets were aspirated and the radioactivity (dpm) in each was determined by gamma counting.

C=C1[C@@H]2CCC3[C@@](CC[C@@H]4[C@H](C(=O)O)C[C@@H](O[C@@H]5O[C@H](CO)[C@@H](OS(=O)(=O)[O-])[C@H](OS(=O)(=O)[O-])[C@H]5OC(=O)CC(C)C)C[C@@]34C)(C2)[C@@H]1O.[K+].[K+] (some centres unmarked) [ATR, atractyloside]
IC50 ([1]; 0.5 nM 125I-compound 24, FIG. 17, read-out: IC50, competitive inhibition of 125I-compound 24 binding): ~44 nM
affinity relative to the low affinity ANT ligand ADP ([1]; 1 μg protein/tube, FIG. 13): about 1,000 fold
competitive inhibition of 125I-compound 24 binding (in words) ([1]; FIGS. 11, 13, 16): slightly higher affinity than compound 24
affinity relative to the low affinity ANT ligand ADP ([2]; mitochondria from T. ni cells expressing huANT3, 1 μg protein/tube, FIG. 14): about 1,000 fold
competitive inhibition of 125I-compound 24 binding (in words) ([2]; mitochondria from T. ni cells expressing huANT3, FIGS. 12, 14, 15): slightly higher affinity than compound 24; also recorded: increasingly inhibited by higher concentrations of ATR
